Reference: ChEMBL document CHEMBL4152318, “Halogenated quinolines bearing polar functionality at the 2-position: Identification of new antibacterial agents with enhanced activity against Staphylococcus epidermidis” (Eur J Med Chem, 2018)
pIC50: −log10 of the molar value. Converted amounts (≈) assume the structure as drawn.

Assays:
HeLa = experiment: Cytotoxicity against human HeLa cells after 24 hrs by LDH release assay; type: cell-based
[1] = system: Staphylococcus epidermidis; experiment: Antibacterial activity against methicillin-resistant Staphylococcus epidermidis ATCC 35984 after 16 to 18 hrs by broth microdilution method; type: functional
[2] = Selectivity index, ratio of IC50 for cytotoxicity against human HeLa cells to MIC for antibacterial activity against methicillin-resistant Staphylococcus epidermidis ATCC 35984; type: toxicity, cell-based; settings: read-out: Selectivity Index
Enterococcus faecium [3] = experiment: Antibacterial activity against vancomycin-resistant Enterococcus faecium ATCC 700221 after 16 to 18 hrs by broth microdilution method; type: functional
Staphylococcus aureus [4] = experiment: Antibacterial activity against methicillin-resistant Staphylococcus aureus BAA-1707 after 16 to 18 hrs by broth microdilution method; type: functional
[5] = system: Staphylococcus epidermidis; experiment: Bactericidal activity against methicillin-resistant Staphylococcus epidermidis ATCC 35984 planktonic cells after 24 hrs by CBD assay; type: functional; settings: ATCC 35984, 24 h
Staphylococcus aureus [6] = experiment: Bactericidal activity against methicillin-resistant Staphylococcus aureus BAA-1707 planktonic cells after 24 hrs by CBD assay; type: functional; settings: BAA-1707, 24 h
[7] = Selectivity ratio of MIC for methicillin-resistant Staphylococcus aureus BAA-1707 to MIC for methicillin-resistant Staphylococcus epidermidis ATCC 35984; type: functional
[8] = system: Staphylococcus epidermidis; experiment: Potency index, ratio of TPEN MIC to compound MIC for antibacterial activity against methicillin-resistant Staphylococcus epidermidis ATCC 35984; type: functional
Enterococcus faecium [9] = experiment: Bactericidal activity against vancomycin-resistant Enterococcus faecium ATCC 700221 planktonic cells after 24 hrs by CBD assay; type: functional; settings: ATCC 700221, 24 h
Enterococcus faecium [10] = experiment: Antibiofilm activity against vancomycin-resistant Enterococcus faecium ATCC 700221 after 24 hrs by CBD assay; type: functional
[11] = Hemolytic activity against human RBC at 200 uM after 1 hr relative to control; type: ADME, cell-based, Erythrocyte; settings: red blood cells (erythrocytes), read-out: Activity
[12] = system: Staphylococcus epidermidis; experiment: Antibiofilm activity against methicillin-resistant Staphylococcus epidermidis ATCC 35984 after 24 hrs by CBD assay; type: functional
Staphylococcus aureus [13] = experiment: Potency index, ratio of TPEN MIC to compound MIC for antibacterial activity against methicillin-resistant Staphylococcus aureus BAA-1707; type: functional
Staphylococcus aureus [14] = experiment: Antibiofilm activity against methicillin-resistant Staphylococcus aureus BAA-1707 after 24 hrs by CBD assay; type: functional
[15] = Selectivity ratio of MIC for vancomycin-resistant Enterococcus faecium ATCC 700221 to MIC for methicillin-resistant Staphylococcus epidermidis ATCC 35984; type: functional

SMILES	pIC50 (HeLa)	MIC [1]	selectivity ratio [2]	MIC (Enterococcus faecium [3])	MIC (Staphylococcus aureus [4])	MBC [5]	MBC (Staphylococcus aureus [6])	Selectivity ratio [7]	Ratio [8]	MBC (Enterococcus faecium [9])	MBEC (Enterococcus faecium [10])	hemolysis at 1 h, 200 µM [11]	MBEC [12]	Ratio (Staphylococcus aureus [13])	MBEC (Staphylococcus aureus [14])	Selectivity ratio [15]
COCCOCc1ccc2c(Br)cc(Br)c(O)c2n1	< 4.00	1.56 µM (≈ 0.61 µg/mL)														
Oc1c(Br)cc(Br)c2ccc(CNc3ccccc3)nc12	4.00	0.15 µM (≈ 0.0612 µg/mL)	667	0.78 µM (≈ 0.318 µg/mL)	0.39 µM (≈ 0.159 µg/mL)											
C[C@H](NC(=O)OC(C)(C)C)C(=O)N1CCN(Cc2ccc3c(Br)cc(Br)c(O)c3n2)CC1		3.13 µM (≈ 1.79 µg/mL)		6.25 µM (≈ 3.58 µg/mL)	3.13 µM (≈ 1.79 µg/mL)											
CCCCCCCCCC(=O)N[C@@H](Cc1c[nH]c2ccccc12)C(=O)N[C@@H](CC(N)=O)C(=O)N[C@@H](CC(=O)O)C(=O)N[C@@H]1C(=O)NCC(=O)N[C@@H](CCCN)C(=O)N[C@@H](CC(=O)O)C(=O)N[C@H](C)C(=O)N[C@@H](CC(=O)O)C(=O)NCC(=O)N[C@H](CO)C(=O)N[C@@H]([C@H](C)CC(=O)O)C(=O)N[C@@H](CC(=O)c2ccccc2N)C(=O)O[C@@H]1C [DAPTOMYCIN]		12.5 µM (≈ 20.3 µg/mL)		3.13 µM (≈ 5.07 µg/mL)	3.13 µM (≈ 5.07 µg/mL)											
CCCNCc1ccc2c(Br)cc(Br)c(O)c2n1	< 4.00			3.13 µM (≈ 1.17 µg/mL)	2.35 µM (≈ 0.879 µg/mL)											
OCc1ccc2c(Br)cc(Br)c(O)c2n1	< 4.00	37.5 µM (≈ 12.5 µg/mL)	> 2.7	25 µM (≈ 8.32 µg/mL)	100 µM (≈ 33.3 µg/mL)											
CC(C)(C)OC(=O)NCC(=O)N1CCN(Cc2ccc3c(Br)cc(Br)c(O)c3n2)CC1		9.38 µM (≈ 5.24 µg/mL)		12.5 µM (≈ 6.98 µg/mL)	25 µM (≈ 14 µg/mL)											
Oc1c(Br)cc(Br)c2ccc(CN3CCOCC3)nc12	< 4.00	0.59 µM (≈ 0.237 µg/mL)	> 169	3.13 µM (≈ 1.26 µg/mL)	1.56 µM (≈ 0.627 µg/mL)	4.69 µM (≈ 1.89 µg/mL)	25 µM (≈ 10.1 µg/mL)	> 2	16 - 42	1.56 µM (≈ 0.627 µg/mL)	1.17 µM	2.6%	2.35 µM	16 - 42	>200 µM	> 2
CCCCOCc1ccc2c(Br)cc(Br)c(O)c2n1	< 4.30	0.3 µM (≈ 0.117 µg/mL)	> 167	12.5 µM (≈ 4.86 µg/mL)	2.35 µM (≈ 0.914 µg/mL)	37.5 µM (≈ 14.6 µg/mL)		> 2	16 - 42			2.8%	75 µM	16 - 42		> 2
COCCOCCOCCOCc1ccc2c(Br)cc(Br)c(O)c2n1	4.00	2.35 µM (≈ 1.13 µg/mL)			2.35 µM (≈ 1.13 µg/mL)											
Oc1c(Br)cc(Br)c2ccc(CN3CCNCC3)nc12		12.5 µM (≈ 5.01 µg/mL)		50 µM (≈ 20.1 µg/mL)	25 µM (≈ 10 µg/mL)											
Cc1ccc2c(Br)cc(Br)c(O)c2n1 [BROQUINALDOL]	< 4.00	1.17 µM (≈ 0.371 µg/mL)		3.13 µM (≈ 0.992 µg/mL)												
CCCc1ccc2c(Br)cc(Br)c(O)c2n1	< 4.30	0.59 µM (≈ 0.204 µg/mL)	> 85	0.78 µM (≈ 0.269 µg/mL)	0.39 µM (≈ 0.135 µg/mL)											
CN[C@H](CC(C)C)C(=O)N[C@H]1C(=O)N[C@@H](CC(N)=O)C(=O)N[C@H]2C(=O)N[C@H]3C(=O)N[C@H](C(=O)N[C@H](C(=O)O)c4cc(O)cc(O)c4-c4cc3ccc4O)[C@H](O)c3ccc(c(Cl)c3)Oc3cc2cc(c3O[C@@H]2O[C@H](CO)[C@@H](O)[C@H](O)[C@H]2O[C@H]2C[C@](C)(N)[C@H](O)[C@H](C)O2)Oc2ccc(cc2Cl)[C@H]1O [VANCOMYCIN]				> 100 µM		3 µM (≈ 4.35 µg/mL)	3.9 µM (≈ 5.65 µg/mL)			> 200 µM	150 µM	≤ 1%	>2000 µM		>2000 µM	
CC(=O)NC[C@H]1CN(c2ccc(N3CCOCC3)c(F)c2)C(=O)O1 [LINEZOLID]		3.13 µM (≈ 1.06 µg/mL)		3.13 µM (≈ 1.06 µg/mL)	12.5 µM (≈ 4.22 µg/mL)											
OCc1cn(Cc2ccc3c(Br)cc(Br)c(O)c3n2)nn1		> 100 µM		> 100 µM	> 100 µM											
c1ccc(CN(CCN(Cc2ccccn2)Cc2ccccn2)Cc2ccccn2)nc1		12.5 µM (≈ 5.31 µg/mL)			46.9 µM (≈ 19.9 µg/mL)	250 µM (≈ 106 µg/mL)	375 µM (≈ 159 µg/mL)					≤ 1%	>2000 µM		>2000 µM	
C#CCNCc1ccc2c(Br)cc(Br)c(O)c2n1	< 4.60	0.3 µM (≈ 0.111 µg/mL)	> 83	1.56 µM (≈ 0.577 µg/mL)	3.13 µM (≈ 1.16 µg/mL)			> 2	16 - 42					16 - 42		> 2
CC(C)(C)OC(=O)N1CCN(Cc2ccc3c(Br)cc(Br)c(O)c3n2)CC1	< 4.00	0.3 µM (≈ 0.15 µg/mL)	> 333	0.59 µM (≈ 0.296 µg/mL)	0.78 µM (≈ 0.391 µg/mL)	37.5 µM (≈ 18.8 µg/mL)	18.8 µM (≈ 9.42 µg/mL)			4.69 µM (≈ 2.35 µg/mL)	1.56 µM	2.8%	6.25 µM		18.8 µM	
CC(C)(C)OC(=O)NCCOCCOCCNCc1ccc2c(Br)cc(Br)c(O)c2n1		3.13 µM (≈ 1.76 µg/mL)		6.25 µM (≈ 3.52 µg/mL)	12.5 µM (≈ 7.04 µg/mL)											
NCCOCCOCCNCc1ccc2c(Br)cc(Br)c(O)c2n1		25 µM (≈ 11.6 µg/mL)		50 µM (≈ 23.2 µg/mL)	37.5 µM (≈ 17.4 µg/mL)											
COCCOCCOCc1ccc2c(Br)cc(Br)c(O)c2n1	< 4.00	0.78 µM (≈ 0.339 µg/mL)	> 128	3.13 µM (≈ 1.36 µg/mL)	2.35 µM (≈ 1.02 µg/mL)	25 µM (≈ 10.9 µg/mL)	50 µM (≈ 21.8 µg/mL)	> 2	16 - 42	6.25 µM (≈ 2.72 µg/mL)	2.35 µM	4.1%	75 µM	16 - 42	200 µM	> 2
